Experimental findings from PubChem BioAssay (NCI) are described below.

Among the test systems are A549 NSCLC; HCC-2998 colon; HL-60(TB) leukemia; M14 melanoma; OVCAR-3 ovarian; SF-295 CNS; SF-539 CNS; SK-MEL-2 melanoma; TK-10 renal; U251 CNS.
Assay in all cases: NCI anticancer screen, dose series, 48 h

Several values for one entry are separate records, joined by “and”; a condition that tells them apart may be missing. Equal values may be shown once.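 Exposure lasted 48 hours, with cells grown in 96-well plates and compounds tested at five concentrations. GI50 is the concentration that inhibits growth by half. TGI: concentration producing complete growth inhibition.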

Consider `COc1cc2nncc(SCc3ccc(Cl)c(Cl)c3)c2cc1OC`, for which the TGI in the experiment on A549 NSCLC, in the experiment with HCC-2998 colon, in the experiment with HL-60(TB) leukemia, with M14 melanoma, with OVCAR-3 ovarian and with SF-295 CNS was more than 100 µM in each case. The TGI with SF-539 CNS, in the experiment with SK-MEL-2 melanoma, in the experiment with TK-10 renal and in the experiment on U251 CNS was more than 100 µM each time.

Take `CCCCCCCCCCCCCCCCCc1nnc(N)o1`: the TGI in the experiment with A549 NSCLC, in the experiment with HCC-2998 colon, in the experiment with HL-60(TB) leukemia, in the experiment with M14 melanoma, with OVCAR-3 ovarian and with SF-295 CNS was more than 100 µM throughout. Further, the TGI in the experiment on SF-539 CNS, in the experiment on SK-MEL-2 melanoma, with TK-10 renal and in the experiment with U251 CNS was more than 100 µM each time.

On to `N#CC(C(=O)CCC(=O)Nc1ccc(Cl)c(Cl)c1)c1ccc(Cl)cc1` (stereo not drawn), for which the TGI in the experiment on A549 NSCLC, in the experiment on HCC-2998 colon, with HL-60(TB) leukemia, in the experiment with M14 melanoma, in the experiment with OVCAR-3 ovarian and in the experiment on SF-295 CNS was more than 100 µM throughout. Also, the TGI in the experiment with SF-539 CNS, in the experiment with SK-MEL-2 melanoma, in the experiment with TK-10 renal and with U251 CNS was more than 100 µM throughout.

Regarding `O=c1[nH]nc(-c2ccccc2)c2c(-c3ccccc3)onc12`, the GI50 in the experiment with A549 NSCLC was 0.529 µM; with HCC-2998 colon it was 39.7 µM; with HL-60(TB) leukemia, 0.291 µM; with M14 melanoma it was 0.329 µM; in the experiment on OVCAR-3 ovarian it was 0.358 µM; in the experiment on SF-295 CNS, 0.72 µM. Also, the GI50 was 0.351 µM in the experiment with SF-539 CNS, 0.999 µM in the experiment on TK-10 renal and 0.517 µM in the experiment on U251 CNS. The TGI in the experiment with A549 NSCLC was more than 100 µM; with HCC-2998 colon, more than 96.3 µM; in the experiment on M14 melanoma it was more than 100 µM; in the experiment on OVCAR-3 ovarian, 1.44 µM; in the experiment on SF-295 CNS, more than 100 µM; with SF-539 CNS, 1.79 µM. The TGI in the experiment on SK-MEL-2 melanoma, in the experiment on TK-10 renal and with U251 CNS was more than 100 µM each time.

Turning to `O=C1NN=CN2C(=O)CCC12` (stereo not drawn), the TGI in the experiment with A549 NSCLC, with HCC-2998 colon, in the experiment with HL-60(TB) leukemia, in the experiment with M14 melanoma, with OVCAR-3 ovarian and with SF-295 CNS was more than 100 µM in each case. Further, the TGI with SF-539 CNS, in the experiment with SK-MEL-2 melanoma, in the experiment on TK-10 renal and with U251 CNS was more than 100 µM each time.

In the case of `O=S(=O)(N/N=C/c1ccc(Cl)cc1Cl)c1ccccc1`, the TGI in the experiment on A549 NSCLC is more than 100 µM; in the experiment with HCC-2998 colon it was more than 100 µM; in the experiment with HL-60(TB) leukemia, 56.9 µM; with M14 melanoma, more than 100 µM; with OVCAR-3 ovarian, more than 100 µM; in the experiment on SF-295 CNS, more than 100 µM. For the same molecule, the TGI in the experiment with SF-539 CNS, with SK-MEL-2 melanoma, in the experiment with TK-10 renal and with U251 CNS was more than 100 µM throughout.

Turning to `Nc1nc(Cl)nc2c1ncn2[C@@H]1O[C@H](COS(N)(=O)=O)[C@@H](O)[C@H]1O`, the GI50 was 0.0259 µM and 0.0263 µM in the experiment on A549 NSCLC; 0.0191 µM and 0.0226 µM in the experiment on HCC-2998 colon; 0.0186 µM and 0.0192 µM in the experiment on M14 melanoma; 0.0282 µM in the experiment with OVCAR-3 ovarian; 0.0244 µM and 0.0324 µM in the experiment on SF-295 CNS; 0.0217 µM in the experiment with SF-539 CNS. Also, the GI50 in the experiment on SK-MEL-2 melanoma is 0.0185 µM and 0.0195 µM; in the experiment on TK-10 renal it was 0.021 µM and 0.0211 µM; with U251 CNS it was 0.0222 µM and 0.0231 µM. For the same molecule, the TGI in the experiment with A549 NSCLC was 0.0829 µM and 0.0823 µM; in the experiment on HCC-2998 colon, 0.0382 µM and 0.0498 µM; in the experiment on HL-60(TB) leukemia, 0.0224 µM; in the experiment with M14 melanoma, 0.0421 µM and 0.0375 µM; in the experiment with OVCAR-3 ovarian, 0.0864 µM and 0.0714 µM; with SF-295 CNS it was 0.0751 µM and 0.143 µM. Moreover, the TGI in the experiment with SF-539 CNS was 0.0563 µM and 0.0533 µM; with SK-MEL-2 melanoma it was 0.0437 µM and 0.0429 µM; in the experiment with TK-10 renal it was 0.0581 µM and 0.0654 µM; in the experiment on U251 CNS, 0.0658 µM and 0.0663 µM.

Consider `NC(=O)N/N=C(\CCC(=O)N(Cc1ccccc1)Cc1ccccc1)CC(=O)c1ccc(F)cc1`, for which the TGI in the experiment with A549 NSCLC, in the experiment with HCC-2998 colon, in the experiment on HL-60(TB) leukemia, in the experiment with M14 melanoma, in the experiment on OVCAR-3 ovarian and in the experiment with SF-295 CNS was more than 100 µM throughout. Besides, the TGI is 62.4 µM in the experiment with SF-539 CNS, more than 100 µM with SK-MEL-2 melanoma, more than 100 µM in the experiment on TK-10 renal and more than 100 µM with U251 CNS.

For `c1ccc2c(CN3CCC(C4CCN(Cc5cccc6ccccc56)CC4)CC3)cccc2c1`, the TGI in the experiment on A549 NSCLC was more than 100 µM; in the experiment with HCC-2998 colon, 2.97 µM and 5.61 µM; in the experiment with HL-60(TB) leukemia, 4.5 µM and 26.1 µM; in the experiment on M14 melanoma it was 3.59 µM and 3.89 µM; with OVCAR-3 ovarian, more than 100 µM; in the experiment with SF-295 CNS, 19.4 µM and 14.2 µM. Besides, the TGI is 9.53 µM and 18 µM with SF-539 CNS; 15.2 µM and 37.1 µM in the experiment with SK-MEL-2 melanoma; 42.8 µM and > 31.6 µM in the experiment with TK-10 renal; 25.5 µM and 47.6 µM with U251 CNS. Moreover, the GI50 in the experiment on SF-539 CNS was 3.63 µM and 8.99 µM.

Turning to `CCCCN(CCCC)CCC(O)c1cc2ccc(C(F)(F)F)cc2c2cc(C(F)(F)F)ccc12` (stereo not drawn), the GI50 was 3.12 µM in the experiment on A549 NSCLC; 2.08 µM in the experiment on HCC-2998 colon; 1.44 µM in the experiment with HL-60(TB) leukemia; 1.82 µM in the experiment on M14 melanoma; 2.89 µM in the experiment on OVCAR-3 ovarian; 5.18 µM in the experiment on SF-295 CNS. In addition, the GI50 with SF-539 CNS was 2.04 µM; in the experiment on SK-MEL-2 melanoma it was 2.53 µM; in the experiment with TK-10 renal, 2.28 µM; in the experiment with U251 CNS, 1.79 µM. Further, the TGI with A549 NSCLC amounted to 12.1 µM; in the experiment on HCC-2998 colon it was 4.58 µM; with HL-60(TB) leukemia it was 3.42 µM; in the experiment with M14 melanoma it was 3.77 µM; in the experiment on OVCAR-3 ovarian it was 7.55 µM; in the experiment with SF-295 CNS, 18 µM. The TGI with SF-539 CNS turned out to be 5.44 µM; in the experiment on SK-MEL-2 melanoma, 4.51 µM; in the experiment with TK-10 renal it was 4.62 µM; in the experiment on U251 CNS it was 3.75 µM.

As to `O=C1OC(OC/C(Br)=C(/Br)COC2OC(=O)C(Cl)=C2Cl)C(Cl)=C1Cl` (stereo not drawn), the TGI in the experiment with A549 NSCLC was determined as 48.9 µM; in the experiment with HCC-2998 colon, 34.1 µM; with HL-60(TB) leukemia, 4.33 µM; with M14 melanoma, 17.3 µM; in the experiment on OVCAR-3 ovarian it was 14.6 µM; in the experiment on SF-295 CNS, 34.2 µM. For the same molecule, the TGI in the experiment on SF-539 CNS came to 36.7 µM; with SK-MEL-2 melanoma, 44.8 µM; in the experiment with TK-10 renal it was 27 µM; in the experiment on U251 CNS, 24.2 µM.
